Results as given in PubChem BioAssay AID1645848.
Converted amounts (≈) assume the structure as drawn.

Conditions: buffer; pH 7.4; 6.0 h; 150.0 µM

SMILES	solubility kinetic
COc1cccc(-c2nc(-c3c(C)noc3C)cc3[nH]c(C)cc23)c1OC	20.4 µg/mL (≈ 56.2 µM)
Cc1ccc(NS(=O)(=O)c2cc3c(cc2N[C@H](C)CO)NC(=O)CC3)cc1C	> 60 µg/mL
Cc1c(C(=O)OCCOc2ccccc2)[nH]c2c1C(=O)CC(c1ccccc1)C2 (stereo not given)	< 1 µg/mL
c1ccc(-c2cc(Nc3nc(-c4ccncc4)nc4ccccc34)n[nH]2)cc1	< 1 µg/mL
Cc1cc(-c2nnc3n2CCCCC3)c(C)n1-c1ccc(F)cc1	35.3 µg/mL (≈ 109 µM)
CCN1C(=O)c2ccccc2[S@](=O)c2ccc(C(=O)N[C@H](C)c3ccc(Br)cc3)cc21	< 1 µg/mL
CC[C@H](C)[C@@H]([C@@H](CC(=O)N1CCC[C@H]1[C@H](OC)[C@@H](C)C(=O)N[C@@H](Cc1ccccc1)c1nccs1)OC)N(C)C(=O)[C@@H](NC(=O)[C@H](C(C)C)N(C)C)C(C)C	65.7 µg/mL (≈ 83.7 µM)
Cc1cnc(-c2ccccc2C(C)(C)C)nc1NCc1ccc(-n2ccnn2)cc1	13.2 µg/mL (≈ 33.2 µM)
COc1ccc(NS(=O)(=O)c2ccc(C)cc2)cc1C(=O)Nc1nc(-c2ccccc2)cs1	< 1 µg/mL
C=C1[C@@H](C)C2[C@H](Cc3ccccc3)NC(=O)[C@@]23C(/C=C/C[C@H](C)C[C@@](C)(O)/C=C/[C@@H]3OC(C)=O)[C@@H]1O (stereo not given in full)	1.9 µg/mL (≈ 3.85 µM)
Cc1cn2c(N)c(Cl)cc(C(=O)NCC3CCN(CC(C)C)CC3)c2n1	39.2 µg/mL (≈ 104 µM)
CN1CCN(Cc2ccc(NC(=O)Cc3ccc(Oc4cc(NC(=O)C5CC5)ncn4)cc3)cc2C(F)(F)F)CC1	57.3 µg/mL (≈ 101 µM)
O=S(=O)(Nc1ccccc1)c1ccc(NCc2cccc(Cl)c2O)cc1	2.64 µg/mL (≈ 6.8 µM)
Fc1ccc(F)c(Nc2nc(-c3ccncc3)nc3ccccc23)c1	< 1 µg/mL
COc1ccc(Cl)cc1C(=O)Nc1nc(-c2ccccc2)cs1	< 1 µg/mL
COc1cc2c(Oc3ccc(-c4cnc(Nc5ccc(F)cc5)n(C)c4=O)cc3F)ccnc2cc1OCCCN1CCOCC1	< 1 µg/mL
COCCCNC(=O)c1cc2cc(S(=O)(=O)N(C)C)ccc2n1C	42.6 µg/mL (≈ 120 µM)
Cc1ccc2oc3c(c(=O)c2c1)C(c1ccc(O)cc1)N(CCCN(C)C)C3=O (stereo not given)	> 58 µg/mL
c1ccc(CNc2nc(NCc3ccccc3)c3ccccc3n2)cc1	< 1 µg/mL
COc1ccc(CN2CCc3nc(N4CCN(c5ccc(F)cc5)CC4)ncc3C2)c(OC)c1OC	< 1 µg/mL
CCOC(=O)c1[nH]c(C)c(CCC(=O)N2CCN(c3cc(C)ccc3C)CC2)c1C	6.25 µg/mL (≈ 15.2 µM)
O=c1[nH]cnc2nc[nH]c12	8.8 µg/mL (≈ 64.7 µM)
CCCCOc1ccc(C2c3c(oc4ccc(C)cc4c3=O)C(=O)N2CCCN(C)C)cc1OCC (stereo not given)	58.5 µg/mL (≈ 119 µM)
Cc1ccnc(NC(=S)N2CCN(c3cccc(C(F)(F)F)c3)CC2)c1	9.68 µg/mL (≈ 25.4 µM)

SMILES	solubility kinetic
CCc1cccc(NS(=O)(=O)c2ccc3c(c2)CC(C)N3C(=O)C2CC2)c1 (stereo not given)	< 1 µg/mL
COc1ccc(Cn2c(C(=O)O)c(CNCc3cccc(OC)c3)c3ccc(C)cc32)cc1	6.85 µg/mL (≈ 15.4 µM)
Cc1cc(/C=C2/C(=O)Nc3ccccc32)cc(C)c1O	< 1 µg/mL
COc1cc(-c2c(C#N)c(N)nc3c2c(C)nn3-c2ccc(F)cc2)ccc1O	< 1 µg/mL
C[C@]12CC[C@@H]3[C@H](CCC4=CC(=O)CC[C@]43C)[C@]1(O)CC[C@@]2(O)C(=O)CO	> 54 µg/mL
O=c1[nH]c(C2CCN(S(=O)(=O)c3ccc4c(c3)OCCO4)CC2)nc2c1nnn2Cc1c(F)cccc1Cl	< 1 µg/mL
CCOc1ccc(CCNC(=O)c2cc3cccnc3n2Cc2cccc(C)c2)cc1OCC	< 1 µg/mL
NC(=O)C1CCN(c2nc(-c3cccc(Br)c3)cs2)CC1	20.5 µg/mL (≈ 55.9 µM)
CC(=O)Nc1nc(C)c(-c2ccc(Cl)c(S(=O)(=O)NCCO)c2)s1	> 57 µg/mL
COc1ccc2[nH]c(=O)c(-c3noc(-c4ccc(F)cc4)n3)cc2c1	< 1 µg/mL
O=C1Nc2ccccc2/C1=C/c1cccc(C(=O)O)c1	> 39 µg/mL
COc1ccc(-c2nc(-c3c(C)noc3C)cc3c2cc(C)n3CCN(C)C)cc1OC	> 96 µg/mL
O=C(Cn1c2ncccc2c(=O)n1-c1ccccc1)Nc1ccc(Cl)cc1C(F)(F)F	< 1 µg/mL
O=C1CCCC2=C1C(c1[nH]ncc1Cl)N=C(Nc1nc3ccc(F)cc3o1)N2 (stereo not given)	1.53 µg/mL (≈ 3.81 µM)
CN1C(=O)c2ccccc2[S@](=O)c2ccc(C(=O)NCCN3CCCC3)cc21	> 59 µg/mL
CCOC(=O)Cc1ccc(NC(=O)n2ncc3cc(Cl)ccc32)cc1	< 1 µg/mL
CCOC(=O)c1ccc(-n2c(C)cc(-c3nnc4n3CCCCC4)c2C)cc1	> 56 µg/mL
C=CC(=O)Nc1cccc(Oc2nc(Nc3ccc(N4CCN(C)CC4)cc3)ncc2Cl)c1	< 1 µg/mL
Cc1ccc(S(=O)(=O)Nc2cc3c(cc2C(=O)Nc2nc(-c4ccccc4)cs2)OCO3)cc1	< 1 µg/mL
O=C(O)c1ccc(Nc2nc(-c3cc4ccccc4oc3=O)cs2)cc1O	11.7 µg/mL (≈ 30.7 µM)
CC(=O)c1c(C)[nH]c(C(=O)Nc2ccc(C)c(S(=O)(=O)N3CCCCCC3)c2)c1C	1.05 µg/mL (≈ 2.44 µM)
COc1cc2cc(CN3CCC(N(C)C)C3)c(-c3cccc(Cl)c3)nc2cc1OC (stereo not given)	> 42 µg/mL
Cc1sc(NC(=O)Cc2ccc3c(c2)OCO3)nc1-c1ccc2c(c1)CCN2C(=O)c1ccccc1Cl	< 1 µg/mL
CC1=Nc2cc(C(=O)NCc3ccccc3Cl)ccc2Sc2c(C)ccc(C)c21	< 1 µg/mL

SMILES	solubility kinetic
O=C1NC(=S)NC(=O)C1=Cc1cccn1-c1ccc(O)cc1	37 µg/mL (≈ 118 µM)
CCCCNc1oc(-c2cccc3ccccc23)nc1C#N	< 1 µg/mL
Cc1nn(CCc2nc(-c3ccc(OC(F)F)cc3)cs2)c2[nH]c(=O)cc(C(F)(F)F)c12	< 1 µg/mL
CCN1C(=O)c2ccccc2[S@](=O)c2ccc(C(=O)NCc3ccc(C#N)cc3)cc21	29.4 µg/mL (≈ 68.5 µM)
C[C@@H](NC(=O)c1ncnc(N)c1Cl)c1ncc(C(=O)Nc2cc(C(F)(F)F)c(Cl)cn2)s1	> 75 µg/mL
CN([C@@H](Cc1ccc(O[S+](=O)([O-])c2cccc3cnccc23)cc1)C(=O)N1CCN(C(=O)OCc2ccccc2)CC1)[S+](=O)([O-])c1cccc2cnccc12	1.26 µg/mL (≈ 1.61 µM)
Cc1ccc(CC(=O)Nc2nc(-c3ccc4c(c3)CCN4C(=O)c3ccccc3C)c(C)s2)cc1C	< 1 µg/mL
Cc1ccnc(NC(=S)N2CCN(c3cccc(Cl)c3Cl)CC2)c1	2.51 µg/mL (≈ 6.58 µM)
COc1ccccc1N1CCN(CCN(C(=O)c2ccc(I)cc2)c2ccccn2)CC1	53.8 µg/mL (≈ 99.1 µM)
O=C(CCc1ccccc1)NC(c1cccs1)c1cc(Cl)c2cccnc2c1O (stereo not given)	< 1 µg/mL
COC(=O)c1cc2occc2n1Cc1nc(-c2ccc(C)cc2)oc1C	< 1 µg/mL
COc1ccc2cc1Oc1ccc(cc1)C[C@@H]1c3c(cc(OC)c4c3Oc3cc5c(cc3O4)CCN[C@H]5C2)CCN1C	< 1 µg/mL
Oc1ccc(CNc2ccccc2Br)c2cccnc12	8.3 µg/mL (≈ 25.2 µM)
O=C(Nc1ccc(Cl)c(S(=O)(=O)N2CCOCC2)c1)c1ccc(S(=O)(=O)N2CCCCC2)cc1	< 1 µg/mL
CCCCCCCc1c(C)nc(N2CCOCC2)[nH]c1=O	4.18 µg/mL (≈ 14.3 µM)
Nc1ncnc2c1C(=O)N(c1ccc(C3CCC(CC(=O)O)CC3)cc1)CCO2 (stereo not given)	> 59 µg/mL
N#Cc1cccc(NC(=O)c2sc3nc4c(cc3c2N)N2CCC4CC2)c1	5.07 µg/mL (≈ 13.5 µM)
CNC(=O)c1ccc(-c2cnc3cnc(C(=O)N(C)c4ccc(Cl)cc4)cn23)cc1	> 62 µg/mL
COc1ccccc1CN1CCNc2cc(Nc3ccccc3)ncc2C1	> 80 µg/mL
O=C1CCCC2=C1C(c1[nH]ncc1Cl)N=C(Nc1nc3c(Br)cccc3o1)N2 (stereo not given)	< 1 µg/mL
COc1ccc(NC(C)=O)cc1S(=O)(=O)Nc1ccc(Br)cc1	32.7 µg/mL (≈ 81.9 µM)
Oc1ccc(CNc2ccc(C(F)(F)F)cc2F)c2cccnc12	6.45 µg/mL (≈ 19.2 µM)
O=C(Nc1cccc(C(F)(F)F)c1)Nc1cc(S(=O)(=O)NC2CC2)ccc1-c1ccsc1	< 1 µg/mL
CCc1ccc(CNc2ccc3c(c2)ncn3C(C)(C)C)cc1	10.8 µg/mL (≈ 35.3 µM)

SMILES	solubility kinetic
CN1CCN(Cc2ccc(-c3ccc(C(C)(C)C#N)cc3)nc2)CC1	> 49 µg/mL
Cc1ccc2nc(-c3cc(NC(=O)c4ccc5c(c4)OCCO5)ccc3Cl)oc2c1	< 1 µg/mL
O=C1Nc2ccc(C(=O)c3ccco3)cc2/C1=C/c1cc(Cl)c(O)c(Cl)c1	9.16 µg/mL (≈ 22.9 µM)
C=Cc1ccc(C(=O)N2CCCC(CCC(=O)N3CCN(c4ccccn4)CC3)C2)cc1 (stereo not given)	> 64 µg/mL
Cc1cccc2c1NC(=O)/C2=C/c1cc(Cl)c(O)c(Cl)c1	10.1 µg/mL (≈ 31.5 µM)
Cn1c(=O)c2cc(C(=O)NCCCN3CCN(c4ccccc4F)CC3)sc2c2ccccc21	< 1 µg/mL
COc1cccc(NCCC2(c3ccccc3)CC(C)(C)OC(C)(C)C2)c1	< 1 µg/mL
COC[C@@H]1CN(C(=O)c2nn(C)c3ccccc23)C[C@H]1c1nc(C)no1	> 100 µg/mL
CC(C)COc1ccc(-c2csc(N3CCC(C(N)=O)CC3)n2)cc1	2.68 µg/mL (≈ 7.45 µM)
C=CCc1cccc(CNc2ccc(S(=O)(=O)Nc3nccs3)cc2)c1O	23.1 µg/mL (≈ 57.5 µM)
CC(C)c1ccccc1-c1ncc(F)c(NC(C)(C)c2ccc(-c3cccnc3)cc2)n1	< 1 µg/mL
Cn1cc2c3c(cccc31)CN(C(=O)c1ccc(F)c(Cl)c1)CC2	< 1 µg/mL
COc1ccc(C(=O)Nc2nc(-c3ccccc3)cs2)cc1NS(=O)(=O)c1ccc(C)cc1	< 1 µg/mL
O=C([C@@H]1CCCN(c2ccc3[nH]c(C4(n5cc(Cl)cn5)CC4)nc3n2)C1)N1CCCC1	27.2 µg/mL (≈ 61.8 µM)
Cc1ccc(S(=O)(=O)Nc2cnccc2C(=O)Nc2nc(-c3ccccc3F)cs2)cc1	< 1 µg/mL
CCc1ccc(-n2nnc(-c3nsc(NC(=O)c4ccccc4Cl)n3)c2C)cc1	< 1 µg/mL
N#Cc1ccccc1S(=O)(=O)Nc1cnccc1C(=O)Nc1nc(-c2ccccc2)cs1	50.9 µg/mL (≈ 110 µM)
CO[C@@H]1[C@H](N(C)C(=O)c2ccccc2)C[C@H]2O[C@]1(C)n1c3ccccc3c3c4c(c5c6ccccc6n2c5c31)C(=O)NC4	< 1 µg/mL
COc1ccc(C2c3c(ncn(CCN4CCOCC4)c3=N)Oc3ccc4ccccc4c32)cc1OC (stereo not given)	4.21 µg/mL (≈ 8.44 µM)
CCOc1ccc(CCNC(=O)c2ccc(C3(C(F)(F)F)N=N3)cc2)cc1OCC	< 1 µg/mL
CN1CCN(c2cc(-c3nc(Nc4ccc(F)c(F)c4)c4ccccc4n3)ccn2)CC1	< 1 µg/mL
CC1=Nc2cc(C(=O)NC3CCCC3)ccc2Sc2ccc(C)cc21	1.05 µg/mL (≈ 3 µM)
O=C1CCCC2=C1C(c1[nH]ncc1Br)N=C(Nc1nc3ccccc3o1)N2 (stereo not given)	< 1 µg/mL
